{"source": "patent US7619005B2", "about": "“Methods for treating cognitive impairment in humans with Multiple Sclerosis” (Cognition Pharmaceuticals LLC, priority 2000, dated 2009)", "key": {"Long-Evans rats [1]": {"test_system": "Long-Evans rats", "test": "Locomotor activity, activity monitoring chambers", "assay_type": "in vivo, rat", "conditions": "higher doses (0.5, 2.5, 5.0 mg/kg ip) (FIG. 24)", "protocol": "Activity monitoring was conducted in a Plexiglas open-field box measuring 30 by 30 cm. […] The location of the animal within the cage was detected by breaks in the infrared light beams. Light beams status information was collected and rapidly analyzed by a computerized activity monitoring system (VersaMax System, Accuscan Instruments.)\nIn order to determine whether SN522 had any adverse effects on locomotor or exploratory activity, rats were injected with saline or 0.25, 0.5, 2.5 and 5.0 mg/kg of SN522 and immediately afterwards placed into the activity monitoring chambers for a period of three hours."}, "rats [2]": {"test_system": "rats", "test": "Inhibitory Avoidance task, normal rats", "experimental": "The paradigms consists of one training trial and one retention trial. Test substances may be administered to the rats either before or after training. Improved memory, as a result of test substance administration, is evident on the retention trial.\n(§1) Two seconds after entering the dark chamber, a continuous 0.46 mA foot-shock was delivered through the floor grid for two seconds. The animal was then removed from the apparatus and returned to the home cage. The animals received a retention test 24 hours following training. The retention test was identical to training except that no foot-shock was delivered. […] Data was collected by the Graphic State™ Notation software, and was recorded onto an appropriate data sheet."}, "[3]": {"test_system": "rats with bilateral lesions of the fornix", "test": "Inhibitory Avoidance task, fornix lesion rats", "conditions": "for latency to enter the dark side of the apparatus: Fornix lesion rats, each animal", "experimental": "as §1"}, "rats [4]": {"test_system": "rats", "test": "Activity monitoring, open-field box, 10 minutes", "conditions": "2 mg/kg; entire 10 minute session (FIG. 7)", "experimental": "Activity monitoring was conducted in a Plexiblas open-field box. Activity levels were measured by a grid of infrared light beams that traversed the cage from left to right and back to front. The location of the animal was detected by breaks in the infrared light beams. General behavior and activity levels were recorded by a computerized monitoring system for a period of ten minutes. The analyzed behaviors included but were not limited to; horizontal activity, total distance moved, movement time, number of movements, number of rears, number of stereotyped movements, and time spent resting. Data was collected on-line using Versa Max (Version 1.83) computer software and a Hewlett Packard Pavilion computer."}, "Long-Evans rats [5]": {"test_system": "Long-Evans rats", "test": "Passive Avoidance test, injection immediately after training", "conditions": "i.p. immediately after training; p values=0.007 (C105), 0.0004 (d-amphetamine), 0.03 (SN522)"}, "rats [6]": {"test_system": "rats", "test": "Tail-Flick Analgesia Testing (C105)", "assay_type": "in vivo, rat", "parameters": "Tail-Flick Analgesia (latency to flick tail): unit not given here", "conditions": "for Tail-Flick Analgesia (latency to flick tail): each animal", "protocol": "For Tail-Flick Analgesia Testing, the animal was placed on top of the Tail-Flick monitor and gently held in place with a cotton towel. The tail of the animal was placed in a shallow groove lying between two sensors and over the top of a radiant heat wire. The Tail Flick monitor was activated, and the latency for the animal to flick its tail out of the groove and away from the heat source was recorded. The animal was returned to its home cage immediately following testing."}, "scopolamine treated rats": {"test_system": "scopolamine treated rats", "test": "Passive Avoidance in scopolamine treated rats (memory impairment)", "assay_type": "in vivo, rat"}, "[7]": {"test_system": "healthy adult male and female subjects", "test": "Phase 1 studies of C105: safety and tolerability", "assay_type": "in vivo, human", "excerpt": "Safety and tolerability assessments were changes in vital signs, ECGs, Holter monitoring, laboratory tests, physical examination and adverse events."}, "rats [8]": {"test_system": "rats", "test": "Spontaneous Object Recognition task, normal rats", "conditions": "0.5 mg/kg immediately following training", "text": "Apparatus for Object Recognition testing consisted of a plexiglass open field activity chamber, measuring 30 by 30 cm. A video camera was mounted on the wall above the chamber. Three plastic objects served as stimuli for the experiment. Two of the objects were identical to one another, and the third was different. Rats were individually habituated to the open-field box for three consecutive days. Habituation sessions were six minutes in duration. Twenty-four hours after the last day of habituation, a training session was conducted, in which two identical objects were placed in the open-field box, 10 cm from the back wall. The animal was placed into the box and was allowed to explore freely for a period of four minutes. Twenty-four hours after the training session, retention testing was conducted. During retention testing, the rat was placed back into the same activity box with one of the familiar objects used during the training session and a novel object that the rat had not seen before. The rat was allowed to explore the box and objects for a period of four minutes. Testing was conducted at the same time each day, and was videotaped for off-line analysis. Two discrimination indices, D1 and D2 were calculated in order to measure the strength of recognition memory. […]"}}, "note": "Where “and” joins values, the source holds several entries; their conditions need not be identical. Equal values may be shown once."}
{"compound": "C[C@H](N)Cc1ccccc1", "note": "[(S)-(+)-amphetamine, reference compound]", "values": [{"measurement": "effects on activity", "setting": "Long-Evans rats [1]", "result": "profound increases in activity"}, {"measurement": "latency to enter the dark side of the apparatus", "setting": "rats [2]; 0.5 mg/kg, each animal, rank-ordered, 24 h retention", "result": "65.0 seconds and 110.0 seconds and 153.0 seconds and 207.0 seconds (2×) and 2.0 seconds and 26.0 seconds and 38.0 seconds and 39.0 seconds and 63.0 seconds"}, {"measurement": "latency to enter the dark side of the apparatus", "setting": "rats [2]; 1.0 mg/kg, each animal, rank-ordered, 24 h retention", "result": "34.0 s and 35.0 s and 47.0 s and 157.0 s and 263.0 s and 7.0 s and 17.0 s and 19.0 s and 25.0 s and 31.0 s"}, {"measurement": "Inhibitory Avoidance performance, dose experiment", "setting": "rats [2]; 2.0 mg/kg one hour before training (Tables 1 and 2)", "result": "appeared to enhance performance"}, {"measurement": "IA performance of normal rats", "setting": "rats [2]; 2.0 mg/kg, one hour before (FIG. 5), p<0.05 vs all other groups", "result": "dramatically enhanced the performance of normal rats"}, {"measurement": "memory for the Inhibitory Avoidance task", "setting": "rats [2]; 2.0 mg/kg, replicated experiments (FIG. 6), t(76)=3.416, p<0.001", "result": "significantly enhanced memory for the Inhibitory Avoidance task"}, {"measurement": "latency to enter the dark side of the apparatus", "setting": "rats [2]; 2.0 mg/kg, each animal, rank-ordered, 24 h retention", "result": "190.0 s and 230.0 s and 245.0 s and 457.0 s and 517.0 s and 33.0 s and 63.0 s and 82.0 s and 84.0 s and 101.0 s"}, {"measurement": "second retention test one week after the first retention test", "setting": "rats [2]; no additional training or drug (FIG. 4), p<0.01", "result": "performed significantly better than rats that had received control injections of vehicle solution"}, {"measurement": "IA performance of fornix animals compared with normal, saline injected animals", "setting": "[3]; 2.0 mg/kg (FIG. 5)", "result": "not significantly different from normal, saline injected animals"}, {"measurement": "IA performance of fornix lesion rats", "setting": "[3]; 2.0 mg/kg, one hour before (FIG. 5)", "result": "appeared to improve the performance of the fornix lesion rats"}, {"measurement": "locomotor activity", "setting": "rats [4]", "result": "clear and significant enhancement in locomotor activity"}, {"measurement": "dose that significantly improved performance on the passive avoidance task", "setting": "Long-Evans rats [5]", "result": 2.0, "unit": "mg/kg"}]}
{"compound": "(−)-1-methyl-2-phenylethylamine sulfate (2:1) [C105]", "values": [{"measurement": "Tail-Flick Analgesia (latency to flick tail)", "setting": "rats [6]; 1.0 mg/kg one hour prior to testing", "result": "4.60 and 5.09 and 6.01 and 1.13 and 2.28 and 3.26 and 3.30 and 4.59"}, {"measurement": "Tail-Flick Analgesia (latency to flick tail)", "setting": "rats [6]; 2.0 mg/kg one hour prior to testing", "result": "3.89 and 3.96 and 4.45 and 2.46 and 2.68 and 2.79 and 3.05 and 3.56"}, {"measurement": "Tail-Flick Analgesia (latency to flick tail)", "setting": "rats [6]; 4.0 mg/kg one hour prior to testing", "result": "6.66 and 16.44 and 20.00 and 2.22 and 3.13 and 5.43 and 6.26 and 6.42"}, {"measurement": "Tail-Flick Analgesia (latency to flick tail)", "setting": "rats [6]; 8.0 mg/kg one hour prior to testing", "result": "6.54 and 7.39 and 14.43 and 3.13 and 4.67 and 4.72 and 5.22"}, {"measurement": "analgesic properties", "setting": "rats [6]; 1.0 and 2.0 mg/kg one hour prior to testing", "result": "had no analgesic properties"}, {"measurement": "analgesic properties", "setting": "rats [6]; 4.0 and 8.0 mg/kg one hour prior to testing, statistical significance at 4.0 mg/kg (p<0.0117)", "result": "did"}, {"measurement": "performance vs animals treated with scopolamine and saline", "setting": "scopolamine treated rats; 1.0 mg/kg of C105, printed p>0.05", "result": "performed significantly better than animals treated with scopolamine and saline"}, {"measurement": "alleviation of scopolamine impairment (step-through latency)", "setting": "scopolamine treated rats; C105 i.p. immediately after training, log rank p=0.02 (FIG. 33)", "result": "effective at alleviating the impairment in the scopolamine-injected animals"}, {"measurement": "serious adverse events", "setting": "[7]; single oral doses 5 to 45 mg", "result": "no reported serious adverse events"}, {"measurement": "most frequently reported adverse events", "setting": "[7]; single oral doses 5 to 45 mg, generally mild", "result": "dizziness, headache, insomnia, sinus tachycardia, supraventricular tachycardia and aptyalism"}, {"measurement": "tolerability", "setting": "[7]; single oral doses ranging from 5 to 45 mg", "result": "well tolerated"}, {"measurement": "latency to enter the dark side of the apparatus", "setting": "rats [2]; 0.4 mg/kg one hour prior to training, each animal, rank-ordered", "result": "231.0 s and 236.0 s and 250.0 s and 265.0 s and 629.0 s and 45.0 s and 62.0 s and 80.0 s and 87.0 s and 170.0 s"}, {"measurement": "Inhibitory Avoidance performance, post training administration", "setting": "rats [2]; 0.5 mg/kg immediately after training (FIG. 11), p<0.0402", "result": "significantly enhanced performance on the Inhibitory Avoidance task"}, {"measurement": "latency to enter the dark side of the apparatus", "setting": "rats [2]; 1.0 mg/kg one hour prior to training, each animal, rank-ordered", "result": "343.0 s and 729.0 s and 813.0 s and 824.0 s and 900.0 s and 101.0 s and 115.0 s and 121.0 s and 202.0 s and 265.0 s"}, {"measurement": "Inhibitory Avoidance performance vs saline controls", "setting": "rats [2]; 1.0 mg/kg one hour prior to training, post hoc p<0.05", "result": "performed significantly better than saline injected controls"}, {"measurement": "latency to enter the dark side of the apparatus", "setting": "rats [2]; 2.0 mg/kg one hour prior to training, each animal, rank-ordered", "result": "230.0 seconds and 231.0 seconds and 253.0 seconds and 366.0 seconds and 384.0 seconds and 30.0 seconds and 59.0 seconds (2×) and 127.0 seconds and 137.0 seconds"}, {"measurement": "latency to enter the dark side of the apparatus", "setting": "rats [2]; Control rats, 0.5 mg/kg, each animal (Table 7)", "result": "214.0 s and 240.0 s and 252.0 s and 271.0 s and 284.0 s"}, {"measurement": "latency to enter the dark side of the apparatus", "setting": "rats [2]; Control rats, 1.0 mg/kg, each animal (Table 7)", "result": "106.0 s and 195.0 s and 197.0 s and 213.0 s and 238.0 s"}, {"measurement": "latency to enter the dark side of the apparatus", "setting": "rats [2]; Control rats, 2.0 mg/kg, each animal (Table 7)", "result": "86.0 s and 92.0 s and 106.0 s and 160.0 s and 192.0 s"}, {"measurement": "latency to enter the dark side of the apparatus", "setting": "rats [2]; Control rats, 4.0 mg/kg, each animal (Table 7)", "result": "83.0 seconds (2×) and 86.0 seconds and 98.0 seconds and 193.0 seconds"}, {"measurement": "mnemonic performance, Inhibitory Avoidance", "setting": "rats [2]; doses lower than 0.5 mg/kg (0.1, […]) one hour prior to training", "result": "not effective in improving the mnemonic performance"}, {"measurement": "latency to enter the dark side of the apparatus", "setting": "rats [2]; low doses: 0.1 mg/kg one hour prior to training, each animal, 0.1 mg/kg", "result": "55.0 seconds (2×) and 110.0 seconds and 113.0 seconds and 124.0 seconds and 366.0 seconds and 37.0 seconds (2×) and 39.0 seconds (2×)"}, {"measurement": "dose most effective in improving the performance of the fornix lesion animals", "setting": "[3]; 0.5, 1.0, 2.0 and 4.0 mg/kg tested, one hour prior to testing (FIG. 12)", "result": 1.0, "unit": "mg/kg"}, {"measurement": "latency to enter the dark side of the apparatus", "setting": "[3]; 0.5 mg/kg", "result": "21.0 seconds (2×) and 32.0 seconds and 55.0 seconds and 65.0 seconds and 72.0 seconds and 209.0 seconds and 4.0 seconds and 7.0 seconds and 13.0 seconds"}, {"measurement": "latency to enter the dark side of the apparatus", "setting": "[3]; 1.0 mg/kg", "result": "19.0 seconds (2×) and 166.0 seconds and 221.0 seconds and 246.0 seconds and 274.0 seconds and 314.0 seconds and 4.0 seconds and 7.0 seconds"}, {"measurement": "latency to enter the dark side of the apparatus", "setting": "[3]; 2.0 mg/kg", "result": "28.0 s and 30.0 s and 40.0 s and 70.0 s and 84.0 s and 153.0 s and 4.0 s and 17.0 s and 18.0 s and 26.0 s"}, {"measurement": "latency to enter the dark side of the apparatus", "setting": "[3]; 4.0 mg/kg", "result": "25.0 s and 28.0 s and 42.0 s and 96.0 s and 140.0 s and 159.0 s and 2.0 s and 8.0 s and 13.0 s and 21.0 s"}, {"measurement": "discrimination indices D1 and D2 vs saline", "setting": "rats [8]; p<0.0147 and p<0.0024", "result": "significantly higher"}, {"measurement": "recognition memory", "setting": "rats [8]; retention 24 h", "result": "significantly improved recognition memory"}, {"measurement": "dose that significantly improved performance on the passive avoidance task", "setting": "Long-Evans rats [5]", "result": 0.5, "unit": "mg/kg"}]}
